Columns and labels:
Myzus persicae [1] = assay: B2: Myzus persicae (Green Peach Aphid), mixed population, systemic/feeding activity, curative; type: in vivo; details: 144 h, roots of infested pea seedlings in test solution of 6 ppm, 6 days after introduction, read-out: control of Myzus persicae (mortality)
From the text: B2: Myzus persicae (Green Peach Aphid) (Mixed Population, Systemic/Feeding Activity, Curative)
Roots of pea seedlings, infested with an aphid population of mixed ages, are placed directly in the test solutions of 6 ppm. 6 days after introduction, samples are checked for mortality and special effects on the plant.

[2] = test system: African bean aphid (Aphis craccivora); assay: Example 1: sugarbeet seed treatment, reduction of African bean aphid; type: in vivo; details: infested 14 days after sowing, counted 7 days after infestation
Procedure: (§1) Sugarbeet seeds are treated with P1.1, P1.5, P1.6, P1.8, P1.32 or P1.38 at rates of 0.1, 0.3 and 0.6 mg a.i./seed. The seeds are sown into 9-cm pots filled with 280 mL of soil. After placing the seeds on the soil surface they are covered with 50 mL of soil. Before and during the bioassays, the plants are grown in greenhouse chambers at 25° C. during daytime, 23° C. during night, 50-60% rH, a 14-hour photoperiod and artificial lighting when natural light fell below 20 kLux. After sowing, the pots are transferred to the greenhouse chambers, set up in a random fashion and are irrigated as necessary from above. After 14 days, the plants are infested with African bean aphid (Aphis craccivora) by placing one infested pea seedling containing approximately 150 aphids of a population of mixed developmental stages onto each plant. Seven days after infestation, the number of aphids is counted per plant. Each treatment group is replicated 10 times. Each replicate contains 1 plant.

[3] = test system: cabbage aphid (Myzus persicae); assay: Example 2: Chinese cabbage seed treatment, reduction of cabbage aphid; type: in vivo; details: infested 14 days after sowing, counted 7 days after infestation
Procedure: as §1, with “Chinese cabbage” for “Sugarbeet”, “of” for “of 0.1,”, “cabbage” for “African bean”, “(Myzus persicae)” for “(Aphis craccivora)”

Myzus persicae [4] = assay: B1: Myzus persicae (Green Peach Aphid), mixed population, sachet test; type: in vivo; details: 144 h, 12.5 ppm in 30% sucrose solution, 6 days after infestation, read-out: control of Myzus persicae (mortality, feeding activity)
Procedure: B1: Myzus persicae (Green Peach Aphid) (Mixed Population, Sachet Test)
Each well of a 24-well microtiter plate is filled with 0.6 ml 30% sucrose solution, containing 12.5 ppm of the test compounds. For producing the sachets, the wells are covered with stretched parafilm and infested with a mixed population of Myzus persicae. 6 days after the infestation, samples are checked for mortality (feeding activity).

Compound | mortality at 6 ppm (Myzus persicae [1]) | Efficacy, % (reduction of aphids compared to untreated control plants) ([2]; 0.1 mg/seed) | Efficacy, % (reduction of aphids compared to untreated control plants) ([2]; 0.3 mg/seed) | Efficacy, % (reduction of aphids compared to untreated control plants) ([2]; 0.6 mg/seed) | Efficacy, % (reduction of aphids compared to untreated control plants) ([3]; 0.3 mg/seed) | Efficacy, % (reduction of aphids compared to untreated control plants) ([3]; 0.6 mg/seed) | mortality at 12.5 ppm (Myzus persicae [4]) | melting point
COc1cccc2c1C(N)=NS2(=O)=O [P1.1, 3-Amino-4-methoxybenzo[d]isothiazole-1,1-dioxide] | 100% | 41% | 69% | 92% | 10% | 45% | 100% | –
COc1cccc2c1C(NC(C)=O)=NS2(=O)=O [P1.8, 3-Acetylamino-4-methoxybenzo[d]isothiazole-1,1-dioxide] | – | 8% | 72% | 95% | 0% | 28% | – | 242 to 245 °C
NC1=NS(=O)(=O)c2cccc(Cl)c21 [P1.5, 3-Amino-4-chlorobenzo[d]isothiazole-1,1-dioxide] | 100% | 87% | – | – | 11% | 64% | 100% | –

From patent US20100173959A1, “METHOD OF PROTECTING A PLANT PROPAGATION MATERIAL, A PLANT, AND/OR PLANT ORGANS” (SYNGENTA CROP PROTECTION, INC., priority 2007, published 2010)
